Assay results: patent publication US11129840B2, “Methods for identifying novel dosing regimens” (Zavante Therapeutics, Inc., priority 2017, dated 2021)

Experiments:
[1] = test system: Carbapenem-resistant Enterobacteriaceae (CRE) clinical isolates; assay: Susceptibility testing, CRE clinical isolates; format: cell-based; settings: 50 isolates
[2] = test system: ESBL-producing K. pneumoniae isolate; assay: Time-kill kinetic analysis; format: cell-based, Klebsiella pneumoniae; settings: CAZ ¼ and 1×MIC, by 4-8 h
Description: Broth microdilution for FOS (Mueller-Hinton broth supplemented with 25 μg/mL glucose-6-phosphate) and comparators was performed before performing TKK. TKK employed MIC multiples for FOS, and ¼ and 1×MIC of select comparators, and combinations of FOS and comparator. TKK were sampled for colony counts at T0, T2, T4, T8 and T24 hours (h). Two Klebsiella pneumoniae isolates (one KPC and one ESBL), two Pseudomonas aeruginosa isolates (non-MDR), and one Acinetobacter baumannii isolate (MDR) were tested.

Pa isolates = assay: Time kill assays against 12 isolates; format: cell-based, Pseudomonas aeruginosa; settings: tested alone, FOS-S isolates; >3-log10 reduction at 12 and/or 24 hours
Description: Forty-three Pa isolates (recovered from unique patients) were selected for testing. […] Interactions between FOS and other agents were determined by double disc testing on Mueller Hinton agar. Discs containing 300 μg FOS and 50 G6P were used, along with commercially available Kirby Bauer discs for other agents. Intravenous FOS MIC breakpoints are not established. […] Time kill assays against 12 isolates were performed for FOS, CAZ-AVI, CFT-TAZ and PIP-TAZ (alone, and each agent in combination with FOS) at the respective MIC (or breakpoint MIC for resistant isolates). Bactericidal activity during time-kills was defined as >3-log10 reduction at 12 and/or 24 hours, compared to starting inoculum. Synergy during time-kills was defined as >2-log10 reduction at 12 and/or 24 hours, compared to best single agent alone.

| Compound | Non-susceptiblity rate [1] [%] | decrease in CFU [2] | % of isolates with bactericidal activity (Pa isolates) [%] |
| --- | --- | --- | --- |
| CC(C)(O/N=C(\C(=O)N[C@@H]1C(=O)N2C(C(=O)[O-])=C(C[n+]3ccccc3)CS[C@H]12)c1csc(N)n1)C(=O)O [CAZ, ceftazidime] | 92 | 0.9-2.1 log10 CFU |  |
| C[C@@H](O)[C@H]1C(=O)N2C(C(=O)O)=C(SCCN=CN)C[C@H]12 [IMP, Imipenem] | 86 |  |  |
| C[C@@H](O)[C@H]1C(=O)N2C(C(=O)O)=C(S[C@@H]3CN[C@H](C(=O)N(C)C)C3)[C@H](C)[C@H]12 [MEM, Meropenem] | 82 |  |  |
| Gentamicin | 54 |  |  |
| Piperacillin-tazobactam [PTZ] | 96 |  | 8 |
| ceftazidime-avibactam [C-A] | 6 |  | 8 |
| ceftolozane-tazobactam [C-T] | 43 |  | 8 |
